Test results from the NIST ThermoML archive (doi:10.1016/j.jct.2010.08.010).

Details: Liquid, Buoyancy - hydrostatic balance with magnetic suspension - one sinker

C1CCCCC1 [cyclohexane]
Details	mass density [kg/m3]
293.15 K, 99.46 kPa	778.632
293.15 K, 1102 kPa	779.471
293.15 K, 2002.4 kPa	780.22
293.15 K, 4003.9 kPa	781.856
293.15 K, 6003.8 kPa	783.454
293.15 K, 8003.3 kPa	785.025
293.15 K, 10042 kPa	786.595
293.15 K, 12046 kPa	788.105
293.15 K, 13919 kPa	789.495
293.15 K, 15982 kPa	790.995
293.15 K, 17946 kPa	792.401
293.15 K, 20017 kPa	793.855
313.15 K, 102.48 kPa	759.667
313.15 K, 1139 kPa	760.675
313.15 K, 2012.2 kPa	761.509
313.15 K, 4102.4 kPa	763.47
313.15 K, 5932.8 kPa	765.157
313.15 K, 7910.5 kPa	766.936
313.15 K, 10018 kPa	768.784
313.15 K, 12069 kPa	770.545
313.15 K, 13965 kPa	772.137
313.15 K, 15902 kPa	773.737
313.15 K, 17956 kPa	775.394
313.15 K, 20142 kPa	777.123
333.15 K, 1112.4 kPa	741.367
333.15 K, 2043.6 kPa	742.401
333.15 K, 3988 kPa	744.517
333.15 K, 5966.8 kPa	746.613
333.15 K, 8141.8 kPa	748.853
333.15 K, 10007 kPa	750.72
333.15 K, 11994 kPa	752.664
333.15 K, 14093 kPa	754.666
333.15 K, 15963 kPa	756.414
333.15 K, 17995 kPa	758.261
333.15 K, 19861 kPa	759.929
353.15 K, 1109.9 kPa	721.547
353.15 K, 1973.2 kPa	722.669
353.15 K, 4000 kPa	725.242
353.15 K, 6001.3 kPa	727.698
353.15 K, 8046.5 kPa	730.125
353.15 K, 10046 kPa	732.423
353.15 K, 11820 kPa	734.413
353.15 K, 13860 kPa	736.633
353.15 K, 15940 kPa	738.835
353.15 K, 18023 kPa	740.978
353.15 K, 20003 kPa	742.965
373.15 K, 1115.5 kPa	701.065
373.15 K, 1950.1 kPa	702.346
373.15 K, 4154.1 kPa	705.638
373.15 K, 6126 kPa	708.455
373.15 K, 8029.4 kPa	711.079
373.15 K, 9951.2 kPa	713.63
373.15 K, 12097 kPa	716.383
373.15 K, 13877 kPa	718.592
373.15 K, 16148 kPa	721.319
373.15 K, 18078 kPa	723.568
373.15 K, 19877 kPa	725.607
393.15 K, 1162.9 kPa	679.792
393.15 K, 1960.3 kPa	681.265
393.15 K, 3901.4 kPa	684.723
393.15 K, 5983.9 kPa	688.253
393.15 K, 7986.4 kPa	691.487
393.15 K, 9903.3 kPa	694.452
393.15 K, 11975 kPa	697.527
393.15 K, 13821 kPa	700.163
393.15 K, 16029 kPa	703.195
393.15 K, 18027 kPa	705.845
393.15 K, 20004 kPa	708.371
413.15 K, 1196.7 kPa	657.32
413.15 K, 2172.6 kPa	659.527
413.15 K, 4146.4 kPa	663.767
413.15 K, 6122.3 kPa	667.756
413.15 K, 8132.6 kPa	671.583
413.15 K, 10013 kPa	674.989
413.15 K, 11993 kPa	678.397
413.15 K, 14004 kPa	681.703
413.15 K, 16053 kPa	684.936
413.15 K, 18098 kPa	688.022
413.15 K, 19935 kPa	690.694
433.15 K, 1086.7 kPa	632.817
433.15 K, 2070.6 kPa	635.63
433.15 K, 4050.3 kPa	640.931
433.15 K, 6077 kPa	645.937
433.15 K, 8181.7 kPa	650.742
433.15 K, 10077 kPa	654.811
433.15 K, 12111 kPa	658.913
433.15 K, 13890 kPa	662.325
433.15 K, 15959 kPa	666.096
433.15 K, 18073 kPa	669.76
433.15 K, 20010 kPa	672.969
453.15 K, 2100.8 kPa	609.942
453.15 K, 4117.3 kPa	616.844
453.15 K, 6121.3 kPa	623.004
453.15 K, 8117.4 kPa	628.596
453.15 K, 9915.4 kPa	633.254
453.15 K, 11931 kPa	638.115
453.15 K, 13935 kPa	642.628
453.15 K, 15959 kPa	646.918
453.15 K, 18103 kPa	651.206
453.15 K, 19890 kPa	654.601
473.15 K, 2403.5 kPa	582.448
473.15 K, 3924.9 kPa	589.431
473.15 K, 6045.2 kPa	597.933
473.15 K, 8093.2 kPa	605.148
473.15 K, 9884.3 kPa	610.832
473.15 K, 11911 kPa	616.733
473.15 K, 13943 kPa	622.171
473.15 K, 16018 kPa	627.319
473.15 K, 18133 kPa	632.216
473.15 K, 20025 kPa	636.335
